Experimental data published in patent US20100099561A1, “HETEROBICYCLIC ALKYLTHIO-BRIDGED ISOXAZOLINES” (E.I. DU PONT DE NEMOURS AND COMPANY, priority 2008, published 2010).

Key:
Format in all cases: in vivo
[1] = test system: large crabgrass (Digitaria sanguinalis); test: Test A preemergence, large crabgrass; conditions: 0 to 100 scale (0 no effect, 100 complete control)
How it was run: (§1)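 Seeds planted in loam–sand blend; compounds in non-phytotoxic solvent with surfactant applied as directed preemergence soil spray, or postemergence to plants 2–10 cm tall at one- to two-leaf stage. After ~10 days in greenhouse, injury rated visually versus untreated controls on 0–100 scale (100 = complete control).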

[2] = test system: giant foxtail (Setaria faberii); test: Test B preemergence, giant foxtail; conditions: scale 0 to 100
Text: (§2) Seeds of plant species selected from blackgrass (Alopecurus myosuroides), downy bromegrass (Bromus tectorum), green foxtail (Setaria viridis), Italian ryegrass (Lolium multiflorum), wheat (Triticum aestivum), wild oat (Avena fatua), catchweed bedstraw (Galium aparine), bermudagrass (Cynodon dactylon), Surinam grass (Brachiaria decumbens), cocklebur (Xanthium strumarium), corn (Zea mays), large crabgrass (Digitaria sanguinalis), woolly cupgrass (Eriochloa villosa), giant foxtail (Setaria faberii), goosegrass (Eleusine indica), johnsongrass (Sorghum halepense), kochia (Kochia scoparia), lambsquarters (Chenopodium album), morningglory (Ipomoea coccinea), nightshade (eastern black nightshade, Solanum ptycanthum), yellow nutsedge (Cyperus esculentus), pigweed (Amaranthus retroflexus), ragweed (common ragweed, Ambrosia elatior), soybean (Glycine max), sunflower (common oilseed sunflower, Helianthus annuus), Russian thistle (Salsola kali), and velvetleaf (Abutilon theophrasti) were planted into a blend of loam soil and sand and treated preemergence with test compounds formulated in a non-phytotoxic solvent mixture which included a surfactant. Treated plants and controls were maintained in a greenhouse for 13 to 15 days, after which time all species were compared to controls and visually evaluated. Plant response ratings, summarized in Table B, are based on a scale of 0 to 100 where 0 is no effect and 100 is complete control. A dash (-) response means no test result.

[3] = test system: ducksalad (Heteranthera limosa); test: Test B flooded paddy test, ducksalad; conditions: Flood, scale 0 to 100
How it was run: (§3)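 Compounds were added directly to paddy water over 2-leaf-stage plants in pots flooded 3 cm above soil, water depth maintained. Visual injury scored against controls after 13 to 15 days in greenhouse, 0 (none) to 100 (complete control); dash indicates no result.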

[4] = test system: catchweed bedstraw (Galium aparine); test: Test B preemergence, catchweed bedstraw; conditions: scale 0 to 100
Text: as §2

[5] = test system: sunflower (common oilseed sunflower, Helianthus annuus); test: Test B preemergence, sunflower; conditions: Preemergence, scale 0 to 100
How it was run: (§4)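 Planting into loam soil blended with sand preceded preemergence treatment. After 13 to 15 days under greenhouse conditions, response was judged by eye against controls, 0 meaning no effect and 100 complete control.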

[6] = test system: yellow nutsedge (Cyperus esculentus); test: Test B preemergence, yellow nutsedge; conditions: scale 0 to 100
Text: as §2

[7] = test system: corn (Zea mays); test: Test A preemergence, corn; conditions: 0 to 100 scale (0 no effect, 100 complete control)
How it was run: as §1

[8] = test system: wild oat (Avena fatua); test: Test B preemergence, wild oat; conditions: scale 0 to 100
Text: as §2

[9] = test system: barnyardgrass (Echinochloa crus-galli); test: Test A preemergence, barnyardgrass; conditions: 0 to 100 scale (0 no effect, 100 complete control)
How it was run: as §1

[10] = test system: soybean (Glycine max); test: Test B preemergence, soybean; conditions: Preemergence, scale 0 to 100
How it was run: as §4

[11] = test system: green foxtail (Setaria viridis); test: Test B preemergence, green foxtail; conditions: scale 0 to 100
Text: as §2

[12] = test system: velvetleaf (Abutilon theophrasti); test: Test B preemergence, velvetleaf; conditions: Preemergence, scale 0 to 100
How it was run: as §4

[13] = test system: barnyardgrass (Echinochloa crus-galli); test: Test B flooded paddy test, barnyardgrass; conditions: Flood
How it was run: as §3

[14] = test system: corn (Zea mays); test: Test A postemergence, corn; conditions: 0 to 100 scale (0 no effect, 100 complete control)
How it was run: as §1

[15] = test system: barnyardgrass (Echinochloa crus-galli); test: Test A postemergence, barnyardgrass; conditions: 0 to 100 scale (0 no effect, 100 complete control)
How it was run: as §1

[16] = test system: pigweed (Amaranthus retroflexus); test: Test A preemergence, pigweed; conditions: 0 to 100 scale (0 no effect, 100 complete control)
How it was run: as §1

[17] = test system: nightshade (eastern black nightshade, Solanum ptycanthum); test: Test B preemergence, nightshade; conditions: scale 0 to 100
Text: as §2

[18] = test system: giant foxtail (Setaria faberi); test: Test A preemergence, giant foxtail; conditions: 0 to 100 scale (0 no effect, 100 complete control)
How it was run: as §1

[19] = test system: umbrella sedge (Cyperus difformis); test: Test B flooded paddy test, umbrella sedge; conditions: Flood, scale 0 to 100
How it was run: as §3

[20] = test system: giant foxtail (Setaria faberi); test: Test A postemergence, giant foxtail; conditions: 0 to 100 scale (0 no effect, 100 complete control)
How it was run: as §1

[21] = 250 g ai/ha, scale 0 to 100 (0 no effect, 100 complete control)

CC1(C)CC(S(=O)(=O)Cc2c(C(F)(F)C(F)(F)F)nc3n(c2=O)CCC3)=NO1 [Compound 22]
Plant response rating, Crabgrass, Large ([1]; 125 g ai/ha): 90
Plant response rating, Crabgrass, Large ([1]; 500 g ai/ha): 100
Plant response rating, Foxtail, Giant ([2]; 16 g ai/ha): 50
Plant response rating, Foxtail, Giant ([2]; 31 g ai/ha): 50
Plant response rating, Foxtail, Giant ([2]; 62 g ai/ha): 90
Plant response rating, Foxtail, Giant ([2]; 125 g ai/ha): 100
Plant response rating, Ducksalad ([3]; 62 g ai/ha): 0
Plant response rating, Ducksalad ([3]; 250 g ai/ha): 0
Plant response rating, Galium ([4]; 16 g ai/ha): 0
Plant response rating, Galium ([4]; 31 g ai/ha): 0
Plant response rating, Galium ([4]; 62 g ai/ha): 0
Plant response rating, Galium ([4]; 125 g ai/ha): 0
Plant response rating, Sunflower ([5]; 16 g ai/ha): 0
Plant response rating, Sunflower ([5]; 31 g ai/ha): 0
Plant response rating, Sunflower ([5]; 62 g ai/ha): 0
Plant response rating, Sunflower ([5]; 125 g ai/ha): 50
Plant response rating, Nutsedge, Yellow ([6]; 16 g ai/ha): 0
Plant response rating, Nutsedge, Yellow ([6]; 31 g ai/ha): 10
Plant response rating, Nutsedge, Yellow ([6]; 62 g ai/ha): 60
Plant response rating, Nutsedge, Yellow ([6]; 125 g ai/ha): 80
Plant response rating, Corn ([7]; 125 g ai/ha): 0
Plant response rating, Corn ([7]; 500 g ai/ha): 0
Plant response rating, Oat, Wild ([8]; 16 g ai/ha): 0
Plant response rating, Oat, Wild ([8]; 31 g ai/ha): 0
Plant response rating, Oat, Wild ([8]; 62 g ai/ha): 30
Plant response rating, Oat, Wild ([8]; 125 g ai/ha): 40
Plant response rating, Barnyardgrass ([9]; 125 g ai/ha): 80
Plant response rating, Barnyardgrass ([9]; 500 g ai/ha): 90
Plant response rating, Soybean ([10]; 16 g ai/ha): 0
Plant response rating, Soybean ([10]; 31 g ai/ha): 0
Plant response rating, Soybean ([10]; 62 g ai/ha): 0
Plant response rating, Soybean ([10]; 125 g ai/ha): 0
Plant response rating, Foxtail, Green ([11]; 16 g ai/ha): 50
Plant response rating, Foxtail, Green ([11]; 31 g ai/ha): 70
Plant response rating, Foxtail, Green ([11]; 62 g ai/ha): 100
Plant response rating, Foxtail, Green ([11]; 125 g ai/ha): 100
Plant response rating, Velvetleaf ([12]; 16 g ai/ha): 0
Plant response rating, Velvetleaf ([12]; 31 g ai/ha): 0
Plant response rating, Velvetleaf ([12]; 62 g ai/ha): 60
Plant response rating, Velvetleaf ([12]; 125 g ai/ha): 100
Plant response rating, Barnyardgrass ([13]; 62 g ai/ha, scale 0 to 100): 0
Plant response rating, Barnyardgrass [13, 21]: 0
Plant response rating, Corn ([14]; 125 g ai/ha): 0
Plant response rating, Corn ([14]; 500 g ai/ha): 0
Plant response rating, Barnyardgrass ([15]; 125 g ai/ha): 70
Plant response rating, Barnyardgrass ([15]; 500 g ai/ha): 80
Plant response rating, Pigweed ([16]; 125 g ai/ha): 10
Plant response rating, Pigweed ([16]; 500 g ai/ha): 90
Plant response rating, Nightshade ([17]; 16 g ai/ha): 0
Plant response rating, Nightshade ([17]; 31 g ai/ha): 60
Plant response rating, Nightshade ([17]; 62 g ai/ha): 90
Plant response rating, Nightshade ([17]; 125 g ai/ha): 100
Plant response rating, Foxtail, Giant ([18]; 125 g ai/ha): 90
Plant response rating, Foxtail, Giant ([18]; 500 g ai/ha): 100
Plant response rating, Sedge, Umbrella ([19]; 62 g ai/ha): 0
Plant response rating, Sedge, Umbrella ([19]; 250 g ai/ha): 0
Plant response rating, Foxtail, Giant ([20]; 125 g ai/ha): 70
Plant response rating, Foxtail, Giant ([20]; 500 g ai/ha): 80

CC1(C)CC(S(=O)(=O)Cc2c(C(F)(F)F)nc3n(c2=O)CCC3)=NO1 [Compound 11, 3-[[(4,5-dihydro-5,5-dimethyl-3-isoxazolyl)sulfonyl]methyl]-7,8-dihydro-2-(trifluoromethyl)pyrrolo[1,2-α]pyrimidin-4(6H)-one]
Plant response rating, Crabgrass, Large ([1]; 125 g ai/ha): 80
Plant response rating, Crabgrass, Large ([1]; 500 g ai/ha): 90
Plant response rating, Foxtail, Giant ([2]; 16 g ai/ha): 0
Plant response rating, Foxtail, Giant ([2]; 31 g ai/ha): 40
Plant response rating, Foxtail, Giant ([2]; 62 g ai/ha): 95
Plant response rating, Foxtail, Giant ([2]; 125 g ai/ha): 100
Plant response rating, Ducksalad ([3]; 31 g ai/ha): 0
Plant response rating, Ducksalad ([3]; 62 g ai/ha): 0
Plant response rating, Ducksalad ([3]; 125 g ai/ha): 0
Plant response rating, Ducksalad ([3]; 250 g ai/ha): 35
Plant response rating, Galium ([4]; 16 g ai/ha): 0
Plant response rating, Galium ([4]; 31 g ai/ha): 0
Plant response rating, Galium ([4]; 62 g ai/ha): 95
Plant response rating, Galium ([4]; 125 g ai/ha): 98
Plant response rating, Sunflower ([5]; 16 g ai/ha): 0
Plant response rating, Sunflower ([5]; 31 g ai/ha): 0
Plant response rating, Sunflower ([5]; 62 g ai/ha): 0
Plant response rating, Sunflower ([5]; 125 g ai/ha): 20
Plant response rating, Nutsedge, Yellow ([6]; 16 g ai/ha): 0
Plant response rating, Nutsedge, Yellow ([6]; 31 g ai/ha): 0
Plant response rating, Nutsedge, Yellow ([6]; 62 g ai/ha): 0
Plant response rating, Nutsedge, Yellow ([6]; 125 g ai/ha): 0
Plant response rating, Corn ([7]; 125 g ai/ha): 0
Plant response rating, Corn ([7]; 500 g ai/ha): 0
Plant response rating, Oat, Wild ([8]; 16 g ai/ha): 0
Plant response rating, Oat, Wild ([8]; 31 g ai/ha): 10
Plant response rating, Oat, Wild ([8]; 62 g ai/ha): 20
Plant response rating, Oat, Wild ([8]; 125 g ai/ha): 65
Plant response rating, Barnyardgrass ([9]; 125 g ai/ha): 60
Plant response rating, Barnyardgrass ([9]; 500 g ai/ha): 90
Plant response rating, Soybean ([10]; 16 g ai/ha): 0
Plant response rating, Soybean ([10]; 31 g ai/ha): 0
Plant response rating, Soybean ([10]; 62 g ai/ha): 0
Plant response rating, Soybean ([10]; 125 g ai/ha): 0
Plant response rating, Foxtail, Green ([11]; 16 g ai/ha): 20
Plant response rating, Foxtail, Green ([11]; 31 g ai/ha): 70
Plant response rating, Foxtail, Green ([11]; 62 g ai/ha): 100
Plant response rating, Foxtail, Green ([11]; 125 g ai/ha): 100
Plant response rating, Velvetleaf ([12]; 16 g ai/ha): 0
Plant response rating, Velvetleaf ([12]; 31 g ai/ha): 0
Plant response rating, Velvetleaf ([12]; 62 g ai/ha): 0
Plant response rating, Velvetleaf ([12]; 125 g ai/ha): 65
Plant response rating, Barnyardgrass ([13]; 31 g ai/ha, scale 0 to 100): 0
Plant response rating, Barnyardgrass ([13]; 62 g ai/ha, scale 0 to 100): 0
Plant response rating, Barnyardgrass ([13]; 125 g ai/ha, scale 0 to 100): 0
Plant response rating, Barnyardgrass [13, 21]: 20
Plant response rating, Corn ([14]; 125 g ai/ha): 20
Plant response rating, Corn ([14]; 500 g ai/ha): 50
Plant response rating, Barnyardgrass ([15]; 125 g ai/ha): 80
Plant response rating, Barnyardgrass ([15]; 500 g ai/ha): 90
Plant response rating, Pigweed ([16]; 125 g ai/ha): 30
Plant response rating, Pigweed ([16]; 500 g ai/ha): 100
Plant response rating, Nightshade ([17]; 16 g ai/ha): 0
Plant response rating, Nightshade ([17]; 31 g ai/ha): 60
Plant response rating, Nightshade ([17]; 62 g ai/ha): 95
Plant response rating, Nightshade ([17]; 125 g ai/ha): 98
Plant response rating, Foxtail, Giant ([18]; 125 g ai/ha): 90
Plant response rating, Foxtail, Giant ([18]; 500 g ai/ha): 100
Plant response rating, Sedge, Umbrella ([19]; 31 g ai/ha): 0
Plant response rating, Sedge, Umbrella ([19]; 62 g ai/ha): 0
Plant response rating, Sedge, Umbrella ([19]; 125 g ai/ha): 0
Plant response rating, Sedge, Umbrella ([19]; 250 g ai/ha): 20
Plant response rating, Foxtail, Giant ([20]; 125 g ai/ha): 80
Plant response rating, Foxtail, Giant ([20]; 500 g ai/ha): 80
